Assay results taken from EP4745135A1 (Gluetacs Therapeutics (Shanghai) Co., Ltd., priority 2023, dated 2025).

What was measured:
[1] = molecular target: T1, human Cereblon WT GST-tagged protein (Homo sapiens, UniProt Q96SW2); assay: CRBN-binding affinity, HTRF (CEREBLON BINDING kit); details: for inhibition at 0.5 µM: read-out: Inhibition Rate at 0.5 µM (%); for inhibition at 2 µM: read-out: Inhibition Rate at 2 µM (%)
T1 construct: purchased CISBIO 64BDCRBNPEH

[2] = test system: Human myeloid monocytic leukemia cell (MV-4-11); assay: Tumor cell proliferation inhibition (CellTiter-Meiluncell luminescent cell viability assay); details: MV4-11, 96 h; for inhibition at 0.01 µM: read-out: Inhibition Rate at 10 nM (%); for inhibition at 0.5 µM: read-out: Inhibition Rate at 500 nM (%)
GSPT1 = assay: Western blot, degradation of substrate protein in hPBMCs; format: cell-based, Human
IKZF3 = molecular target: T2, IKZF3 (Homo sapiens, UniProt Q96SW2+Q9UKT9); assay: as above; format: cell-based
T2 construct: effects of the compounds of the present disclosure on the expression of target proteins in cells; endogenous in cells; host or cells: human PBMCs (Milecell Biotechnologies)
T2 sequence (Q9UKT9 whole entry): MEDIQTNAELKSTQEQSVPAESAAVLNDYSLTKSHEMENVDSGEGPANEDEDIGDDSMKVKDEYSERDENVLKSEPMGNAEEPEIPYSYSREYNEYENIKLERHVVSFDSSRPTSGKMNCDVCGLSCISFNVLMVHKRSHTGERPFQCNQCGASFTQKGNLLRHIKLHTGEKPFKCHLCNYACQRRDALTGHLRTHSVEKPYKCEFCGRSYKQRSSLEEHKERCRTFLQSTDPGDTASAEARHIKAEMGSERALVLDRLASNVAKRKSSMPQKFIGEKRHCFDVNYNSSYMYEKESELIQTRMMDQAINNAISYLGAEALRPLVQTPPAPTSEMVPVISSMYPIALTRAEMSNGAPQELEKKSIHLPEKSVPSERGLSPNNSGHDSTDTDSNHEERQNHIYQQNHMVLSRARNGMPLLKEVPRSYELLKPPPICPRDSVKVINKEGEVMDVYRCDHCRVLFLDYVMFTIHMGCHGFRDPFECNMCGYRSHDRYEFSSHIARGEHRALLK
T2 sequence (Q96SW2 whole entry): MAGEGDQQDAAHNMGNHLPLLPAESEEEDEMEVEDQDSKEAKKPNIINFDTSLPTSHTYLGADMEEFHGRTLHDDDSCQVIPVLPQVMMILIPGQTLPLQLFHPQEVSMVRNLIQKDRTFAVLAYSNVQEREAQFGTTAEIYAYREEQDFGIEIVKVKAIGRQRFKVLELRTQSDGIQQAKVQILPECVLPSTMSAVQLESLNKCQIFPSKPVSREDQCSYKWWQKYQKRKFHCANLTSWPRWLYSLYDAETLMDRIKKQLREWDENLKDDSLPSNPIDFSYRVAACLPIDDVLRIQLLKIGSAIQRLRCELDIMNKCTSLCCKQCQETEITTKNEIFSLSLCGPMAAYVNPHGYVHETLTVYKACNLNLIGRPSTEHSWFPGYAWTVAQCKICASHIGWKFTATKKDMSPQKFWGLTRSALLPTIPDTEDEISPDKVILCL
T2 sequence (Q16531 whole entry partner): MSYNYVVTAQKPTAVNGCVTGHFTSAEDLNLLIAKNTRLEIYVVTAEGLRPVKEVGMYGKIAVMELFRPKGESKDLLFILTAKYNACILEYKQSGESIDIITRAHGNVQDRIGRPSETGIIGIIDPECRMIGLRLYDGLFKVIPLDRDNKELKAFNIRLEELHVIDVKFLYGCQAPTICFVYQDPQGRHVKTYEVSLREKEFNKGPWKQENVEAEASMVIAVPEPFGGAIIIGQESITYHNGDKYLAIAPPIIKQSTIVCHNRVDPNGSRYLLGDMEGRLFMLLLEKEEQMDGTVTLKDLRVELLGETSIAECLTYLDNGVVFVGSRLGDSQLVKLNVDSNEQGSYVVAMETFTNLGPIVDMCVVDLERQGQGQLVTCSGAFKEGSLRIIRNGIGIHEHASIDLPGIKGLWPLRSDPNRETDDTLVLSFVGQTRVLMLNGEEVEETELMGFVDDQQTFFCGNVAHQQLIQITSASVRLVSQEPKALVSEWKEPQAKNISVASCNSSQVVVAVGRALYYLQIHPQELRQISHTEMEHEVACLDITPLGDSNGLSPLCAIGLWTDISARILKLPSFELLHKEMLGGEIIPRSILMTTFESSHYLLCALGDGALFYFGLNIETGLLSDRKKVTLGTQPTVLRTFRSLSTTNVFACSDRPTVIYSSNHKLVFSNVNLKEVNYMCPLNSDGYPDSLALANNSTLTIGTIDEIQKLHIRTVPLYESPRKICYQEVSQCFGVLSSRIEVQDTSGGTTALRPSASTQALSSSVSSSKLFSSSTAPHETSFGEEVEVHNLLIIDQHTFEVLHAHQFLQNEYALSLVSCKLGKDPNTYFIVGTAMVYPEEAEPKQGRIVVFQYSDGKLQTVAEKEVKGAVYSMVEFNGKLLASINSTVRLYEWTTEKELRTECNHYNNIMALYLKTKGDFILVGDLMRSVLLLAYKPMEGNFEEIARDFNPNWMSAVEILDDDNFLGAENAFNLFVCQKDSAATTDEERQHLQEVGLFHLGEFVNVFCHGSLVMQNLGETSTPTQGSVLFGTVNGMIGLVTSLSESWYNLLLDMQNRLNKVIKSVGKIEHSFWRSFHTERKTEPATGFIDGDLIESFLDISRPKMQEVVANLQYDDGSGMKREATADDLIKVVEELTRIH

IKZF1 = molecular target: T3, IKZF1 (Homo sapiens, UniProt Q13422+Q96SW2); assay: as above; format: cell-based
T3 construct: effects of the compounds of the present disclosure on the expression of target proteins in cells; endogenous in cells; host or cells: human PBMCs (Milecell Biotechnologies)
T3 sequence (Q13422 whole entry): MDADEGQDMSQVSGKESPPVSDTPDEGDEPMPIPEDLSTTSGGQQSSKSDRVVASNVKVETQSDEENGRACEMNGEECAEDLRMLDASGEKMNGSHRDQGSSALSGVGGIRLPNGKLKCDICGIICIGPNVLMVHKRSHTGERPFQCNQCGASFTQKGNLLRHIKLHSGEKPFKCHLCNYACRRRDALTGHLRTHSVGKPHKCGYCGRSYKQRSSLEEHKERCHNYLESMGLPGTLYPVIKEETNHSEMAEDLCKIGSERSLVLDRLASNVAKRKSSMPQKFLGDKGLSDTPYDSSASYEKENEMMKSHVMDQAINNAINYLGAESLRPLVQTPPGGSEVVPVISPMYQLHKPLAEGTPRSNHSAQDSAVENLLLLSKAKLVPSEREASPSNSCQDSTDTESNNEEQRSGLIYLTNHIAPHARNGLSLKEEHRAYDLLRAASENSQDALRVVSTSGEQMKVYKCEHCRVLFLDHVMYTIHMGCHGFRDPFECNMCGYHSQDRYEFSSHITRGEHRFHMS
T3 sequence (Q96SW2 whole entry): as the sequence (Q96SW2 whole entry) above
T3 sequence (Q16531 whole entry partner): as the sequence (Q16531 whole entry partner) above

WEE1 = molecular target: T4, WEE1 (Homo sapiens, UniProt P30291+Q96SW2); assay: as above; format: cell-based
T4 construct: effects of the compounds of the present disclosure on the expression of target proteins in cells; endogenous in cells; host or cells: human PBMCs (Milecell Biotechnologies)
T4 sequence (P30291 whole entry): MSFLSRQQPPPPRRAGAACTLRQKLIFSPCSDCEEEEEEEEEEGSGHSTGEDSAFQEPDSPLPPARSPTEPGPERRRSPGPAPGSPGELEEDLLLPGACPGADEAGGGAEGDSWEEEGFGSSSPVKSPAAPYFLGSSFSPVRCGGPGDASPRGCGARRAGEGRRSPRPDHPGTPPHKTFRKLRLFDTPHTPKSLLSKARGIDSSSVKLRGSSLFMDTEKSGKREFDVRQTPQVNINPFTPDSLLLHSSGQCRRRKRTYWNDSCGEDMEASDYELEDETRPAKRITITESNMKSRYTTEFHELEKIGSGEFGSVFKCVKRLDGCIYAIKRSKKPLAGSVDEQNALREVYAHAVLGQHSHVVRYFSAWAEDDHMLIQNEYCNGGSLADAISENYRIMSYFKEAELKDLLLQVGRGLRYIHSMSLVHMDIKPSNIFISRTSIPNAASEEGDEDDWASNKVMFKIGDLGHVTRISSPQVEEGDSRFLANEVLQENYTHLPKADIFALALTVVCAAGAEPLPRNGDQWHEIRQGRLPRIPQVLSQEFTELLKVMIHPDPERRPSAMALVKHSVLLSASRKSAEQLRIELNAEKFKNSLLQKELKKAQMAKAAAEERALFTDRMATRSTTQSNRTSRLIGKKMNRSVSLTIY
T4 sequence (Q96SW2 whole entry): as the sequence (Q96SW2 whole entry) above
T4 sequence (Q16531 whole entry partner): as the sequence (Q16531 whole entry partner) above

IKZF2 = molecular target: T5, IKZF2 (Homo sapiens, UniProt Q96SW2+Q9UKS7); assay: as above; format: cell-based
T5 construct: effects of the compounds of the present disclosure on the expression of target proteins in cells; endogenous in cells; host or cells: human PBMCs (Milecell Biotechnologies)
T5 sequence (Q9UKS7 whole entry): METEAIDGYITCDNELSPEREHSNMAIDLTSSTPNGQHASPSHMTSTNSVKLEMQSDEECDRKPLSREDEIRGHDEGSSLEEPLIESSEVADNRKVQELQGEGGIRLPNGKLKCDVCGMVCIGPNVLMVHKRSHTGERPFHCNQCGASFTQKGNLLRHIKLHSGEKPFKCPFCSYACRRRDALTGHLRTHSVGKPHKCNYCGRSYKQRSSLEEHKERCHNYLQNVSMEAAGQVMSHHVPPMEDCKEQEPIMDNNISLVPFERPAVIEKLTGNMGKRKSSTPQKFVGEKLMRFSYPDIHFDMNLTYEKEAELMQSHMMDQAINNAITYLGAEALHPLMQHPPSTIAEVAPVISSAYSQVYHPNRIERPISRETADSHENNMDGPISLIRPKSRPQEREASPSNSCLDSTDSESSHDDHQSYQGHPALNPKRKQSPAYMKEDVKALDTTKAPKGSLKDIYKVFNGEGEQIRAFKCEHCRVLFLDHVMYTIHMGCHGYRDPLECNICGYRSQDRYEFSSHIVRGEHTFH
T5 sequence (Q96SW2 whole entry): as the sequence (Q96SW2 whole entry) above
T5 sequence (Q16531 whole entry partner): as the sequence (Q16531 whole entry partner) above

CK1α = molecular target: T6, CK1α (Homo sapiens, UniProt P48729+Q96SW2); assay: as above; format: cell-based
T6 construct: effects of the compounds of the present disclosure on the expression of target proteins in cells; endogenous in cells; host or cells: human PBMCs (Milecell Biotechnologies)
T6 sequence (P48729 whole entry): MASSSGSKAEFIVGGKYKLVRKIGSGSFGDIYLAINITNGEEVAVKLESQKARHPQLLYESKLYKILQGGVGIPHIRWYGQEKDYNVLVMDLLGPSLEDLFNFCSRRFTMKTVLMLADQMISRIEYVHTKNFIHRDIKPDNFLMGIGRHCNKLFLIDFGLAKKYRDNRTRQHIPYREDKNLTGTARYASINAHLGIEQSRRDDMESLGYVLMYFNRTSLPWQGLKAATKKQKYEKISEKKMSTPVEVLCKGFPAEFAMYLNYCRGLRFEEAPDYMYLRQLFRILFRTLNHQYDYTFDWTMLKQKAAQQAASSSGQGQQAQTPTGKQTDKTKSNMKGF
T6 sequence (Q96SW2 whole entry): as the sequence (Q96SW2 whole entry) above
T6 sequence (Q16531 whole entry partner): as the sequence (Q16531 whole entry partner) above

[3] = test system: Human multiple myeloma cell (MM.1S); assay: Tumor cell proliferation inhibition (CellTiter-Meiluncell luminescent cell viability assay); details: for inhibition at 0.01 µM: read-out: Inhibition Rate at 10 nM (%)
[4] = 24 hours treatment, compounds at 50 nM and 500 nM (concentration behind the class not stated)
[5] = Western blot, 24 hours of compound treatment, compounds tested at 50 nM and 500 nM (concentration for the table not stated)

T1 sequence (Q96SW2 whole entry): as the sequence (Q96SW2 whole entry) above

Row | Structure (SMILES) | inhibition at 0.5 µM [1] [%] | inhibition at 2 µM [1] [%] | inhibition at 0.01 µM [2] [%] | inhibition at 0.5 µM [2] [%] | GSPT1 substrate protein remaining % (GSPT1; [4]) | IKZF3 substrate protein remaining % (IKZF3; [4]) | IKZF 1 substrate protein remaining % (IKZF1; [4]) | Wee1 substrate protein remaining % (WEE1; [4]) | IKZF2 substrate protein remaining % (IKZF2; [4]) | CK1α substrate protein remaining % (CK1α; [4]) | GSPT1 substrate protein remaining % (GSPT1; [5]) | IKZF3 substrate protein remaining % (IKZF3; [5]) | IKZF 1 substrate protein remaining % (IKZF1; [5]) | Wee1 substrate protein remaining % (WEE1; [5]) | IKZF2 substrate protein remaining % (IKZF2; [5]) | CK1α substrate protein remaining % (CK1α; [5]) | inhibition at 0.01 µM ([3]; Homo sapiens, MM1.S, 96 h) [%] | Inhibition Rate at 500 nM (%) ([3]; MM.1S, 500 nM, 96 hours) | inhibition at 0.5 µM ([3]; Homo sapiens, MM1.S, 96 h, read-out: Inhibition Rate at 500 nM (%)) [%]
1 | Cc1csc2ncnc(N3CCN(Cc4ccc5c(c4)CN(C4CCC(=O)NC4=O)C5=S)CC3)c12 (stereo not shown) [GT-09281, 3-(5-((4-(5-methylthieno[2,3-d]pyrimidin-4-yl)piperazin-1-yl)methyl)-1-thioxoisoindolin-2-yl)piperidine-2,6-dione] | 80 to 100 | 80 to 100 | 25 to 30 | 40 to 60 |  |  |  |  |  |  |  |  |  |  |  |  |  |  | 
2 | O=C1CCC(N2Cc3c(CN4CCN(c5ncnc6ccsc56)CC4)cccc3C2=S)C(=O)N1 (stereo not shown) [GT-08970, 3-(4-((4-(thieno[3,2-d]pyrimidin-4-yl)piperazin-1-yl)methyl)-1-thioxoisoindolin-2-yl)piperidine-2,6-dione] | 60 to 80 | 80 to 100 | 18 to 25 | 40 to 60 | B (80%< substrate protein remaining %≤ 100%) | B (80%< substrate protein remaining %≤ 100%) | B (80%< substrate protein remaining %≤ 100%) | A (0% ≤ substrate protein remaining % ≤ 80%) | B (80%< substrate protein remaining %≤ 100%) | B (80%< substrate protein remaining %≤ 100%) |  |  |  |  |  |  |  |  | 
3 | O=C1CCC(N2Cc3cc(CN4CCN(c5cccc(C(F)(F)F)n5)CC4)ccc3C2=S)C(=O)N1 (stereo not shown) [GT-09224, 3-(1-thioxo-5-((4-(6-(trifluoromethyl)pyridin-2-yl)piperazin-1-yl)methyl)isoindolin-2-yl)piperidine-2,6-dione] | 60 to 80 | 80 to 100 | -5 to 0 | 40 to 60 |  |  |  |  |  |  | A (0% ≤ substrate protein remaining % ≤ 80%) | A (0% ≤ substrate protein remaining % ≤ 80%) | B (80%< substrate protein remaining %≤ 100%) | B (80%< substrate protein remaining %≤ 100%) | B (80%< substrate protein remaining %≤ 100%) | A (0% ≤ substrate protein remaining % ≤ 80%) |  |  | 
4 | O=C1CCC(N2Cc3c(CN4CCC(c5ccccc5)CC4)cccc3C2=S)C(=O)N1 (stereo not shown) [GT-08506, 3-(4-((4-phenylpiperidin-1-yl)methyl)-1-thioxoisoindolin-2-yl)piperidine-2,6-dione] |  |  | 30 to 40 | 40 to 60 |  |  |  |  |  |  | A (0% ≤ substrate protein remaining % ≤ 80%) | A (0% ≤ substrate protein remaining % ≤ 80%) | B (80%< substrate protein remaining %≤ 100%) | A (0% ≤ substrate protein remaining % ≤ 80%) | A (0% ≤ substrate protein remaining % ≤ 80%) | B (80%< substrate protein remaining %≤ 100%) |  |  | 
5 | O=C1CCC(N2Cc3c(CN4CCN(c5ccc(C(F)(F)F)cc5)CC4)cccc3C2=S)C(=O)N1 (stereo not shown) [GT-08262, 3-(1-thioxo-4-((4-(4-(trifluoromethyl)phenyl)piperazin-1-yl)methyl)isoindolin-2-yl)piperidine-2,6-dione] | 30 to 40 | 60 to 80 | 25 to 30 | 40 to 60 |  |  |  |  |  |  | A (0% ≤ substrate protein remaining % ≤ 80%) | B (80%< substrate protein remaining %≤ 100%) | B (80%< substrate protein remaining %≤ 100%) | A (0% ≤ substrate protein remaining % ≤ 80%) | B (80%< substrate protein remaining %≤ 100%) | A (0% ≤ substrate protein remaining % ≤ 80%) |  |  | 
6 | O=C1CCC(N2Cc3cc(CN4CCN(c5ccnc(F)c5F)CC4)ccc3C2=S)C(=O)N1 (stereo not shown) [GT-09242, 3-(5-((4-(2,3-difluoropyridin-4-yl)piperazin-1-yl)methyl)-1-thioxoisoindolin-2-yl)piperidine-2,6-dione] | 60 to 80 | 80 to 100 | 60 to 80 | 30 to 40 |  |  |  |  |  |  |  |  |  |  |  |  |  |  | 
7 | O=C1CCC(N2Cc3cc(CN4CCN(c5cccnc5)CC4)ccc3C2=S)C(=O)N1 (stereo not shown) [GT-09229, 3-(5-((4-(pyridin-3-yl)piperazin-1-yl)methyl)-1-thioxoisoindolin-2-yl)piperidine-2,6-dione] | 60 to 80 | 80 to 100 | 40 to 60 | 40 to 60 |  |  |  |  |  |  |  |  |  |  |  |  |  |  | 
8 | O=C1CCC(N2Cc3cc(CN4CCN(c5ncc(Cl)cc5Cl)CC4)ccc3C2=S)C(=O)N1 (stereo not shown) [GT-09226, 3-(5-((4-(3,5-dichloropyridin-2-yl)piperazin-1-yl)methyl)-1-thioxoisoindolin-2-yl)piperidine-2,6-dione] | 60 to 80 | 80 to 100 | 30 to 40 | 40 to 60 |  |  |  |  |  |  |  |  |  |  |  |  |  |  | 
9 | CC1(C)CCC(CN2CCN(Cc3cccc4c3CN(C3CCC(=O)NC3=O)C4=S)CC2)=C(c2ccc(Cl)cc2)C1 (stereo not shown) [GT-08303, 3-(4-((4-((4'-chloro-5,5-dimethyl-3,4,5,6-tetrahydro-[1,1'-biphenyl]-2-yl)methyl)piperazin-1-yl)methyl)-1-thioxoisoindolin-2-yl)piperidine-2,6-dione] | 30 to 40 | 60 to 80 | 40 to 60 | 40 to 60 |  |  |  |  |  |  |  |  |  |  |  |  |  |  | 
10 | O=C1CCC(N2Cc3cc(CN4CCC(c5ccnc(F)c5F)CC4)ccc3C2=S)C(=O)N1 (stereo not shown) [GT-08473, 3-(5-((4-(2,3-difluoropyridin-4-yl)piperidin-1-yl)methyl)-1-thioxoisoindolin-2-yl)piperidine-2,6-dione] | 60 to 80 | 80 to 100 | 40 to 60 | 40 to 60 |  |  |  |  |  |  |  |  |  |  |  |  |  |  | 
11 | O=C1CCC(N2Cc3c(CN4C5CC4CN(c4cccc(Cl)c4Cl)C5)cccc3C2=S)C(=O)N1 (stereo not shown) [GT-08465, 3-(4-((3-(2,3-dichlorophenyl)-3,6-diazabicyclo[3.1.1]heptan-6-yl)methyl)-1-thioxoisoindolin-2-yl)piperidine-2,6-dione] | 40 to 53 | 60 to 80 |  |  |  |  |  |  |  |  | A (0% ≤ substrate protein remaining % ≤ 80%) | B (80%< substrate protein remaining %≤ 100%) | B (80%< substrate protein remaining %≤ 100%) | B (80%< substrate protein remaining %≤ 100%) | B (80%< substrate protein remaining %≤ 100%) | B (80%< substrate protein remaining %≤ 100%) | 40 to 50 | la5 | 
12 | O=C1CCC(N2Cc3cc(CN4CC5CCC4CN5c4cccc(Cl)c4Cl)ccc3C2=S)C(=O)N1 (stereo not shown) [GT-08478, 3-(5-((5-(2,3-dichlorophenyl)-2,5-diazabicyclo[2.2.2]octan-2-yl)methyl)-1-thioxoisoindolin-2-yl)piperidine-2,6-dione] | 40 to 53 | 80 to 100 |  |  |  |  |  |  |  |  | A (0% ≤ substrate protein remaining % ≤ 80%) | B (80%< substrate protein remaining %≤ 100%) | B (80%< substrate protein remaining %≤ 100%) | B (80%< substrate protein remaining %≤ 100%) | B (80%< substrate protein remaining %≤ 100%) | B (80%< substrate protein remaining %≤ 100%) | 40 to 50 |  | 50 to 60
